Test results: publication PMC6273978, “Synthesis and Pharmacological Evaluation of Novel Pleuromutilin Derivatives with Substituted Benzimidazole Moieties” (Molecules, 2016)
Converted amounts (≈) assume the structure as drawn. Structures can show the parent of a compound that is named as a salt.

Legend:
MRSA [1] = assay: Oxford cup assay, zone of inhibition; format: cell-based; conditions: Staphylococcus aureus
Description: (§1) The Oxford cup assays were carried out to evaluate the antibacterial activities against the above-mentioned six bacterial strains. The zones of inhibition for two concentrations (320 and 160 μg/mL) of the synthetic compounds and tiamulin fumarate were measured. The results of Oxford cup assay correspond with that obtained by agar dilution method (MICs) as a whole.
(§2) The procedure for Oxford cup assays was the same as that previously reported. Briefly, inoculums were prepared in 0.9% saline using McFarland standard and spread uniformly on nutrient agar plates. The 320 and 160 µg/mL of all the tested compounds were added individually into the Oxford cups that were placed at equal distances above the agar surfaces. The zone of inhibition for each concentration was measured after a 24–36 h incubation at 37 °C. The same procedure was repeated in triplicate.

S. aureus [2] = assay: Oxford cup assay, zone of inhibition; format: cell-based; conditions: Staphylococcus aureus
Description: as §1, §2

S. warneri = assay: Oxford cup assay, zone of inhibition; format: cell-based; conditions: Staphylococcus warneri
Description: as §1, §2

E. coli = assay: Oxford cup assay, zone of inhibition; format: cell-based; conditions: Escherichia coli
Description: as §1, §2

S. haemolyticus = assay: Oxford cup assay, zone of inhibition; format: cell-based; conditions: Staphylococcus haemolyticus
Description: as §1, §2

[3] = system: Methicillin-resistant Staphylococcus aureus (MRSA); assay: MIC testing, agar dilution method; format: cell-based; conditions: 36.5 °C, 24–48 h
Text: (§3) The synthesized pleuromutilin derivatives 3 and 4a–l, with tiamulin fumarate used a as reference drug, were screened for their in vitro antibacterial activity against Escherichia coli (E. coli), Staphylococcus aureus (S. aureus), Methicillin-resistant Staphylococcus aureus (MRSA), Staphylococcus vitulinus (S. vitulinus), Staphylococcus warneri (S. warneri), and Staphylococcus haemolyticus (S. haemolyticus). The antibacterial activities are reported in Table 1 as the minimum inhibitory concentration (MIC) using the agar dilution method. The MICs of the 13 new pleuromutilin derivatives in vitro against E. coli ranged from 10 to 80 μg/mL; against S. aureus, MRSA, S. vitulinus, S. warneri, and S. haemolyticus ranged from 0.156 to 40 μg/mL, respectively.
(§4) The MIC for the synthesized compounds (3 and 4a–l) and tiamulin fumarate used as a reference drug were determined using the agar dilution method according to the National Committee for Clinical Laboratory Standards (NCCLS). Tested compounds were dissolved in 25%–40% DMSO to a solution with a concentration of 1280 µg/mL, whereas tiamulin fumarate was directly dissolved in 10 mL of distilled water at the same concentration as the tested compounds. All the solutions were then diluted twofold with sterile water to provide 11 dilutions (final concentration is 0.625 µg/mL). A 2 mL volume of the 2-fold serial dilution of each test compound/drug was incorporated into 18 mL of hot Muellere-Hinton agar medium. Inoculums, including five Gram (+), S. aureus, MRSA, S. vitulinus, S. warneri, S. haemolyticus, and one Gram (−), E. coli were prepared from blood slants and adjusted to approximately 10^5–10^6 CFU/mL with sterile saline (0.90% NaCl). A 10 µL amount of bacterial suspension was spotted onto Muellere-Hinton agar plates containing serial dilutions of the compounds/drug. The plates were incubated at 36.5 °C for 24–48 h. The same procedure was repeated in triplicate.

[4] = system: Staphylococcus aureus (S. aureus); assay: MIC testing, agar dilution method; format: cell-based; conditions: 36.5 °C, 24–48 h
Text: as §3, §4

[5] = system: Escherichia coli (E. coli); assay: MIC testing, agar dilution method; format: cell-based; conditions: 36.5 °C, 24–48 h
Text: as §3, §4

[6] = system: Staphylococcus warneri (S. warneri); assay: MIC testing, agar dilution method; format: cell-based; conditions: 36.5 °C, 24–48 h
Text: as §3, §4

[7] = system: Staphylococcus haemolyticus (S. haemolyticus); assay: MIC testing, agar dilution method; format: cell-based; conditions: 36.5 °C, 24–48 h
Text: as §3, §4

[8] = system: Staphylococcus vitulinus (S. vitulinus); assay: MIC testing, agar dilution method; format: cell-based; conditions: Mammaliicoccus vitulinus, 36.5 °C, 24–48 h
Text: as §3, §4

S. vitulinus = assay: Oxford cup assay, zone of inhibition; format: cell-based, Staphylococcus vitulinus; conditions: Mammaliicoccus vitulinus
Description: as §1, §2

MRSA [9] = assay: Inhibition of short-term bacterial growth (absorbance at 450 nm); format: cell-based; conditions: Staphylococcus aureus, 3.5 h incubation, Mueller-Hinton broth
Description: (§5) Compound 3, being the best antibacterial derivative, was chosen for further evaluation on its antibacterial effect to inhibit short-term S. aureus and MRSA growth (Figure 2). This includes the GI50 of tiamulin fumarate for S. aureus and MRSA.
(§6) The inhibition activities of test compounds were evaluated by measuring the absorbance of the bacterial suspension. In brief, inoculums were prepared from blood slants and adjusted to approximately 10^6 CFU/mL in Muellere-Hinton broth. The 0.0625, 0.125, 0.25, 0.5, 1, and 2 µM of tested compounds were prepared and added to the prepared inoculums. A sample of inoculum with no compound was used as control. The absorbance of bacterial suspension at 450 nm was measured using an UV spectrophotometer after 3.5 h of incubation, and the inhibition was calculated as 1 − (A^P/A^0), where A^p and A^0 are the absorbance of bacterial suspension in the presence and absence of compounds, respectively. The same procedure was independently repeated in triplicate.

S. aureus [10] = assay: as above; format: cell-based; conditions: Staphylococcus aureus, 3.5 h, read-out: GI50 S. aureus growth
Description: as §5, §6

SMILES | MIC [3] [µg/mL] | MIC [4] [µg/mL] | MIC [5] [µg/mL] | MIC [6] [µg/mL] | MIC [8] [µg/mL] | zone of inhibition at 160 µg/mL (MRSA [1]) [mm] | zone of inhibition at 320 µg/mL (MRSA [1]) [mm] | zone of inhibition at 160 µg/mL (S. aureus [2]) [mm] | zone of inhibition at 320 µg/mL (S. aureus [2]) [mm] | zone of inhibition at 160 µg/mL (S. warneri) [mm] | zone of inhibition at 320 µg/mL (S. warneri) [mm] | zone of inhibition at 160 µg/mL (E. coli) [mm] | zone of inhibition at 320 µg/mL (E. coli) [mm] | zone of inhibition at 160 µg/mL (S. haemolyticus) [mm] | zone of inhibition at 320 µg/mL (S. haemolyticus) [mm] | MIC [7] [µg/mL] | zone of inhibition at 160 µg/mL (S. vitulinus) [mm] | zone of inhibition at 320 µg/mL (S. vitulinus) [mm] | GI50 (MRSA [9]) [nM] | GI50 (S. aureus [10]) [nM]
C=C[C@]1(C)C[C@@H](OC(=O)CSc2nc3ccc(NC(=O)c4cc5ccccc5[nH]4)cc3[nH]2)[C@]2(C)[C@H](C)CC[C@]3(CCC(=O)[C@H]32)[C@@H](C)[C@@H]1O [Compound 4l, 14-O-(((1H-Indole-2-carboxamide)-5-aminobenzimidazole-2-yl)thioacetyl) mutilin] | 10 (≈ 15 µM) | 10 (≈ 15 µM) | 20 (≈ 29.9 µM) | 2.5 (≈ 3.74 µM) | 5 (≈ 7.48 µM) | 19.8 | 21.6 | 20.9 | 24.7 | 25.4 | 29.6 | 17.4 | 20.5 | 20.8 | 25.1 | 10 (≈ 15 µM) | 22.1 | 26.5 | – | –
C=C[C@]1(C)C[C@@H](OC(=O)CSCCN(CC)CC)[C@]2(C)[C@H](C)CC[C@]3(CCC(=O)[C@H]32)[C@@H](C)[C@@H]1O [Tiamulin, tiamulin fumarate, reference compound] | 0.156 | 0.156 | 1.25 | 0.156 | 0.156 | 28.1 | 30.5 | 25.1 | 28.2 | 22.4 | 30.5 | 25.8 | 27.1 | 28.8 | 31.5 | 0.156 | 18.6 | 30.9 | 254 | 98.3

The remaining molecules from weak to strong by MIC [3], led by results:

MIC [3] [µg/mL] | MIC [4] [µg/mL] | MIC [5] [µg/mL] | MIC [6] [µg/mL] | MIC [8] [µg/mL] | SMILES | zone of inhibition at 160 µg/mL (MRSA [1]) [mm] | zone of inhibition at 320 µg/mL (MRSA [1]) [mm] | zone of inhibition at 160 µg/mL (S. aureus [2]) [mm] | zone of inhibition at 320 µg/mL (S. aureus [2]) [mm] | zone of inhibition at 160 µg/mL (S. warneri) [mm] | zone of inhibition at 320 µg/mL (S. warneri) [mm] | zone of inhibition at 160 µg/mL (E. coli) [mm] | zone of inhibition at 320 µg/mL (E. coli) [mm] | zone of inhibition at 160 µg/mL (S. haemolyticus) [mm] | zone of inhibition at 320 µg/mL (S. haemolyticus) [mm] | MIC [7] [µg/mL] | zone of inhibition at 160 µg/mL (S. vitulinus) [mm] | zone of inhibition at 320 µg/mL (S. vitulinus) [mm] | GI50 (MRSA [9]) [nM] | GI50 (S. aureus [10]) [nM]
20 (≈ 30.3 µM) | 40 (≈ 60.6 µM) | 40 (≈ 60.6 µM) | 20 (≈ 30.3 µM) | 40 (≈ 60.6 µM) | C=C[C@]1(C)C[C@@H](OC(=O)CSc2nc3ccc(NC(=O)c4ccc(OC)cc4)cc3[nH]2)[C@]2(C)[C@H](C)CC[C@]3(CCC(=O)[C@H]32)[C@@H](C)[C@@H]1O [Compound 4i, 14-O-((4-Methoxybenzamide-5-aminobenzimidazole-2-yl)thioacetyl) mutilin] | 21.3 | 25.7 | 18.6 | 21.5 | 18.6 | 21.8 | 14.2 | 17.7 | 23 | 32.9 | 5 (≈ 7.58 µM) | 17.6 | 18.2 | – | –
1.25 (≈ 1.97 µM) | 5 (≈ 7.86 µM) | 20 (≈ 31.5 µM) | 2.5 (≈ 3.93 µM) | 1.25 (≈ 1.97 µM) | C=C[C@]1(C)C[C@@H](OC(=O)CSc2nc3ccc(NC(=O)C4CCCCC4)cc3[nH]2)[C@]2(C)[C@H](C)CC[C@]3(CCC(=O)[C@H]32)[C@@H](C)[C@@H]1O [Compound 4j, 14-O-((Cyclohexanecarboxamide-5-aminobenzimidazole-2-yl)thioacetyl) mutilin] | 28 | 31.9 | 15.4 | 27.2 | 24.7 | 27.7 | 17.4 | 19.8 | 23 | 26.4 | 10 (≈ 15.7 µM) | 26 | 29.1 | – | –
1.25 (≈ 2.02 µM) | 1.25 (≈ 2.02 µM) | 20 (≈ 32.3 µM) | 5 (≈ 8.08 µM) | 1.25 (≈ 2.02 µM) | C=C[C@]1(C)C[C@@H](OC(=O)CSc2nc3ccc(NC(=O)c4ccc[nH]4)cc3[nH]2)[C@]2(C)[C@H](C)CC[C@]3(CCC(=O)[C@H]32)[C@@H](C)[C@@H]1O [Compound 4k, 14-O-(((1H-Pyrrole-2-carboxamide)-5-aminobenzimidazole-2-yl)thioacetyl) mutilin] | 26.5 | 30.7 | 26.6 | 28.9 | 21.2 | 25.5 | 18.5 | 20.1 | 25.5 | 29.9 | 1.25 (≈ 2.02 µM) | 24.7 | 27 | – | –
